Reference: patent US20200060276A1, “THIAZOLE COMPOUND AND HERBICIDE” (OAT Agrio Co., Ltd., priority 2017, published 2020)

Assays:
Type in all cases: in vivo
[1] = test system: Echinochloa crus-galli (L.) P. Beauv. var. formosensis Ohwi; experiment: Test for Herbicidal Effect in Flooding Treatment (#1), ECHDG; conditions: for ECHDG #1 herbicidal effect (growth inhibition grade): flooding treatment at seeding, dose 2 kg/ha, visual observation on day 21
Procedure, shortened: (§1)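 Flooded soil in cups was seeded 24 h after flooding, then treated with compound in acetone diluted with Tween 80-containing water, dropped onto the water surface at 2 kg/ha. After growth in a glasshouse, growth inhibition was scored visually on day 21 on a 0 (<10%) to 5 (≥90% or complete withering) scale.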

Monochoria vaginalis = experiment: Test for Herbicidal Effect in Flooding Treatment (#1), MONVA; conditions: for MONVA #1 herbicidal effect (growth inhibition grade): flooding treatment at seeding, dose 2 kg/ha, visual observation on day 21
Procedure, shortened: as §1

Scirpus juncoides = experiment: Test for Herbicidal Effect in Flooding Treatment (#1), SCIJU; conditions: for SCIJU #1 herbicidal effect (growth inhibition grade): flooding treatment at seeding, dose 2 kg/ha, visual observation on day 21
Procedure, shortened: as §1

[2] = test system: Echinochloa crus-galli (L.) P. Beauv. var. formosensis Ohwi; experiment: Test for Herbicidal Effect in Flooding Treatment (#2), ECHDG at 2-2.5 leaf stage; conditions: for ECHDG (2-2.5L) #2 herbicidal effect (growth inhibition grade): flooding treatment at 2-2.5 leaf stage, dose 0.2 kg/ha, visual observation on day 21; for inhibition at 200 g/ha: Echinochloa crus-galli, 504 h, flooding treatment (#2), ECHDG at 2-2.5 leaf stage, dose of 0.2 kg/ha, day 21, visual observation, read-out: growth inhibition effect
Procedure, shortened: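 Flooded muddy soil was seeded with the weed, and at 2–2.5 leaf stage compound in acetone/Tween 80 water was dropped on the water surface at 0.2 kg/ha. Plants were kept in a glasshouse and scored visually on day 21 from 0 (<10% growth inhibition) to 5 (≥90% or complete withering).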

## O=S(=O)(Cc1c(F)cccc1OCCCC(F)(F)F)c1ncc(Cl)s1 [Compound 1C-63]
[1]
  ECHDG #1 herbicidal effect (growth inhibition grade): 5 (Growth inhibition effect is equal to or greater than 90%, or complete withering is achieved)
Monochoria vaginalis
  MONVA #1 herbicidal effect (growth inhibition grade): 5 (Growth inhibition effect is equal to or greater than 90%, or complete withering is achieved)
Scirpus juncoides
  SCIJU #1 herbicidal effect (growth inhibition grade): 5 (Growth inhibition effect is equal to or greater than 90%, or complete withering is achieved)
[2]
  ECHDG (2-2.5L) #2 herbicidal effect (growth inhibition grade): 3 (Growth inhibition effect equal to or greater than 50%, and less than 70%)

## O=S(=O)(Cc1c(Cl)cccc1OC(F)F)c1ncc(Cl)s1 [Compound 1C-42]
[1]
  ECHDG #1 herbicidal effect (growth inhibition grade): 5 (Growth inhibition effect is equal to or greater than 90%, or complete withering is achieved)
Monochoria vaginalis
  MONVA #1 herbicidal effect (growth inhibition grade): 5 (Growth inhibition effect is equal to or greater than 90%, or complete withering is achieved)
Scirpus juncoides
  SCIJU #1 herbicidal effect (growth inhibition grade): 5 (Growth inhibition effect is equal to or greater than 90%, or complete withering is achieved)
[2]
  ECHDG (2-2.5L) #2 herbicidal effect (growth inhibition grade): 5 (Growth inhibition effect is equal to or greater than 90%, or complete withering is achieved)

## COc1cccc(Cl)c1CS(=O)(=O)c1ncc(Cl)s1 [Compound 1C-6]
[1]
  ECHDG #1 herbicidal effect (growth inhibition grade): 5 (Growth inhibition effect is equal to or greater than 90%, or complete withering is achieved)
Monochoria vaginalis
  MONVA #1 herbicidal effect (growth inhibition grade): 5 (Growth inhibition effect is equal to or greater than 90%, or complete withering is achieved)
Scirpus juncoides
  SCIJU #1 herbicidal effect (growth inhibition grade): 5 (Growth inhibition effect is equal to or greater than 90%, or complete withering is achieved)
[2]
  inhibition at 200 g/ha: ≥ 90%
  ECHDG (2-2.5L) #2 herbicidal effect (growth inhibition grade): 5 (Growth inhibition effect is equal to or greater than 90%, or complete withering is achieved)

## [O-][S+](Cc1c(F)cccc1OCC(F)(F)C(F)F)c1ncc(Br)s1 (centres unmarked) [Compound 1B-26]
[1]; flooding treatment #1
  ECHDG #1 herbicidal effect (growth inhibition rating 0-5): 5 (Growth inhibition effect is equal to or greater than 90%, or complete withering is achieved)
Monochoria vaginalis; flooding treatment #1
  MONVA #1 herbicidal effect (growth inhibition rating 0-5): 5 (Growth inhibition effect is equal to or greater than 90%, or complete withering is achieved)
Scirpus juncoides; flooding treatment #1
  SCIJU #1 herbicidal effect (growth inhibition rating 0-5): 5 (Growth inhibition effect is equal to or greater than 90%, or complete withering is achieved)
[2]; flooding treatment #2, 2-2.5 leaf stage
  ECHDG (2-2.5L) #2 herbicidal effect (growth inhibition rating 0-5): 4 (Growth inhibition effect is equal to or greater than 70%, and less than 90%)

## O=S(=O)(Cc1c(Cl)cccc1OCC(F)(F)F)c1ncc(Cl)s1 [Compound 1C-55]
[1]
  ECHDG #1 herbicidal effect (growth inhibition grade): 5 (Growth inhibition effect is equal to or greater than 90%, or complete withering is achieved)
Monochoria vaginalis
  MONVA #1 herbicidal effect (growth inhibition grade): 5 (Growth inhibition effect is equal to or greater than 90%, or complete withering is achieved)
Scirpus juncoides
  SCIJU #1 herbicidal effect (growth inhibition grade): 5 (Growth inhibition effect is equal to or greater than 90%, or complete withering is achieved)
[2]
  ECHDG (2-2.5L) #2 herbicidal effect (growth inhibition grade): 5 (Growth inhibition effect is equal to or greater than 90%, or complete withering is achieved)

## CC(=O)C(c1c(F)cccc1OC(F)F)S(=O)(=O)c1ncc(Cl)s1 (racemic) [Compound 1C-146]
[1]
  ECHDG #1 herbicidal effect (growth inhibition grade): 5 (Growth inhibition effect is equal to or greater than 90%, or complete withering is achieved)
Monochoria vaginalis
  MONVA #1 herbicidal effect (growth inhibition grade): 5 (Growth inhibition effect is equal to or greater than 90%, or complete withering is achieved)
Scirpus juncoides
  SCIJU #1 herbicidal effect (growth inhibition grade): 5 (Growth inhibition effect is equal to or greater than 90%, or complete withering is achieved)
[2]
  ECHDG (2-2.5L) #2 herbicidal effect (growth inhibition grade): 5 (Growth inhibition effect is equal to or greater than 90%, or complete withering is achieved)

## CC(c1c(F)cccc1OCCC(F)(F)F)S(=O)(=O)c1ncc(Cl)s1 (racemic) [Compound 1C-149]
[1]
  ECHDG #1 herbicidal effect (growth inhibition grade): 5 (Growth inhibition effect is equal to or greater than 90%, or complete withering is achieved)
Monochoria vaginalis
  MONVA #1 herbicidal effect (growth inhibition grade): 5 (Growth inhibition effect is equal to or greater than 90%, or complete withering is achieved)
Scirpus juncoides
  SCIJU #1 herbicidal effect (growth inhibition grade): 5 (Growth inhibition effect is equal to or greater than 90%, or complete withering is achieved)
[2]
  ECHDG (2-2.5L) #2 herbicidal effect (growth inhibition grade): 4 (Growth inhibition effect is equal to or greater than 70%, and less than 90%)

## CCOc1ccc(Cl)cc1C(F)(F)S(=O)(=O)c1ncc(Cl)s1 [Compound 1C-138]
[1]
  ECHDG #1 herbicidal effect (growth inhibition grade): 5 (Growth inhibition effect is equal to or greater than 90%, or complete withering is achieved)
Monochoria vaginalis
  MONVA #1 herbicidal effect (growth inhibition grade): 5 (Growth inhibition effect is equal to or greater than 90%, or complete withering is achieved)
Scirpus juncoides
  SCIJU #1 herbicidal effect (growth inhibition grade): 5 (Growth inhibition effect is equal to or greater than 90%, or complete withering is achieved)
[2]
  ECHDG (2-2.5L) #2 herbicidal effect (growth inhibition grade): 3 (Growth inhibition effect equal to or greater than 50%, and less than 70%)

## CCOc1ccc(Cl)c(Cl)c1CS(=O)(=O)c1ncc(Cl)s1 [Compound 1C-33, 5-chloro-2-[(2-ethoxy-5,6-dichlorophenyl)(methanesulfonyl)]-1,3-thiazole]
[1]
  ECHDG #1 herbicidal effect (growth inhibition grade): 5 (Growth inhibition effect is equal to or greater than 90%, or complete withering is achieved)
Monochoria vaginalis
  MONVA #1 herbicidal effect (growth inhibition grade): 5 (Growth inhibition effect is equal to or greater than 90%, or complete withering is achieved)
Scirpus juncoides
  SCIJU #1 herbicidal effect (growth inhibition grade): 5 (Growth inhibition effect is equal to or greater than 90%, or complete withering is achieved)
[2]
  inhibition at 200 g/ha: ≥ 90%
  ECHDG (2-2.5L) #2 herbicidal effect (growth inhibition grade): 5 (Growth inhibition effect is equal to or greater than 90%, or complete withering is achieved)

## O=S(=O)(Cc1c(Cl)cccc1OC(F)F)c1ncc(Br)s1 [Compound 1C-154]
[1]
  ECHDG #1 herbicidal effect (growth inhibition grade): 5 (Growth inhibition effect is equal to or greater than 90%, or complete withering is achieved)
Monochoria vaginalis
  MONVA #1 herbicidal effect (growth inhibition grade): 5 (Growth inhibition effect is equal to or greater than 90%, or complete withering is achieved)
Scirpus juncoides
  SCIJU #1 herbicidal effect (growth inhibition grade): 5 (Growth inhibition effect is equal to or greater than 90%, or complete withering is achieved)
[2]
  ECHDG (2-2.5L) #2 herbicidal effect (growth inhibition grade): 5 (Growth inhibition effect is equal to or greater than 90%, or complete withering is achieved)

## O=S(=O)(Cc1c(F)cccc1OCC(F)(F)C(F)(F)F)c1ncc(Cl)s1 [Compound 1C-61]
[1]
  ECHDG #1 herbicidal effect (growth inhibition grade): 5 (Growth inhibition effect is equal to or greater than 90%, or complete withering is achieved)
Monochoria vaginalis
  MONVA #1 herbicidal effect (growth inhibition grade): 5 (Growth inhibition effect is equal to or greater than 90%, or complete withering is achieved)
Scirpus juncoides
  SCIJU #1 herbicidal effect (growth inhibition grade): 5 (Growth inhibition effect is equal to or greater than 90%, or complete withering is achieved)
[2]
  ECHDG (2-2.5L) #2 herbicidal effect (growth inhibition grade): 5 (Growth inhibition effect is equal to or greater than 90%, or complete withering is achieved)

## O=S(=O)(Cc1c(F)cccc1OCC(F)(F)C(F)F)c1ncc(Br)s1 [Compound 1C-164]
[1]
  ECHDG #1 herbicidal effect (growth inhibition grade): 5 (Growth inhibition effect is equal to or greater than 90%, or complete withering is achieved)
Monochoria vaginalis
  MONVA #1 herbicidal effect (growth inhibition grade): 5 (Growth inhibition effect is equal to or greater than 90%, or complete withering is achieved)
Scirpus juncoides
  SCIJU #1 herbicidal effect (growth inhibition grade): 5 (Growth inhibition effect is equal to or greater than 90%, or complete withering is achieved)
[2]
  ECHDG (2-2.5L) #2 herbicidal effect (growth inhibition grade): 5 (Growth inhibition effect is equal to or greater than 90%, or complete withering is achieved)
